One data set deals with JNK1 (Homo sapiens, UniProt P45983). As to the kind of experiment: JNK1 homogeneous time-resolved fluorescence enzyme inhibition assay. Type of data set: biochemical. To be noted: for R: ratio of IC50 values of JNK1 over JNK3: isoform selectivity against JNK1; for IC50: mean of ≥2 experiments, read-out: Biochemical inhibition IC50 JNK1. On the procedure: (§1) A 10-point titration of all compounds was carried out in 3-fold dilutions from 10 μM to 0.5 nM.

The target in the next data set is CYP2D6 (Homo sapiens, UniProt P10635). As to the kind of experiment: P450 cocktail inhibition assay, CYP2D6. Type of data set: in vitro ADME. Conditions: at 10 μM. On the procedure:
(§2) P450s inhibition for four major isoforms are evaluated using a cocktail inhibition assay where the metabolism of specific marker substrate (CYP1A2 phenaceten […] to acetaminophen); CYP2C9, tolbutamide hydroxylation to hydrocytolbutamide; CYP2D6, bufuralol hydroxylation to […]; and CYP3A4, midazolam hydroxylation to 1′-Hydroxymidazolam) in the presence or absence of 10 TM probe compound is evaluated. The concentration of each marker substrate is approximately its Km. […] Specific inhibitors for each isoform are included in each run to validate the system.

In another data set the target is T1, CYP1A2 (Homo sapiens, UniProt P05177).
T1 sequence (P05177 1-516): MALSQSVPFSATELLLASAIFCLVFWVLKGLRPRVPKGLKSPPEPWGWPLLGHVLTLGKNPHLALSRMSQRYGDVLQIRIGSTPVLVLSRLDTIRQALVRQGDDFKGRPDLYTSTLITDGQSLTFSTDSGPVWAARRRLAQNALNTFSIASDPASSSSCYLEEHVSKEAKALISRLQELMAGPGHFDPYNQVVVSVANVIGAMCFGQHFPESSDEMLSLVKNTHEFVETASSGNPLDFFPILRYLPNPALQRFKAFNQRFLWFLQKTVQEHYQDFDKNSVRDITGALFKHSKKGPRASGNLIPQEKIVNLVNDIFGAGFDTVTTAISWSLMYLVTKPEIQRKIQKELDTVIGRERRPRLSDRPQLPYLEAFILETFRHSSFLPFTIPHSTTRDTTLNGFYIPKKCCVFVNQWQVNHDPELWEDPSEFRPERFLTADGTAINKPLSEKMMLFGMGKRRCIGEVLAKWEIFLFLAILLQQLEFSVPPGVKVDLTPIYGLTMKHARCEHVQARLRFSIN
Briefly: P450 cocktail inhibition assay, CYP1A2. Type of data set: in vitro ADME. Conditions: at 10 μM. How it is done:
as §2

Another data set has as its target JNK3α1 (Homo sapiens, UniProt P53779). Type of data set: biochemical. To be noted: for IC50: mean of ≥2 experiments, read-out: Biochemical inhibition IC50 JNK3. On the procedure: as §1
In another data set the test system is SHSY5Y cells. As to the kind of experiment: MTT cytotoxicity assay.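 Further: compounds tested at 10 µM final concentration.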 Type of data set: cell-based. On the set-up: dose or concentration left out as unconfirmed. To be noted: 48 hrs, average of ≥2 experiments. How it is done: A day before the assay, cells were plated at 50,000/well in 96 well plates in the culture medium. […] After the incubation, cells were subjected to MTT assay using Vybrant MTT Cell Proliferation kit as directed by the vendor (Life Technologies).
(In general: Tetrazolium dyes change colour on reduction, which living cells bring about.)

The next data set concerns the target JNK2 (Homo sapiens, UniProt P45984). Briefly: JNK2 homogeneous time-resolved fluorescence enzyme inhibition assay. To be noted: for R: ratio of IC50 values of JNK2 over JNK3: isoform selectivity against JNK2; for IC50: mean of ≥2 experiments, read-out: Biochemical inhibition IC50 JNK2. Type of data set: biochemical. On the procedure:
as §1

The target of the next data set is CYP3A4 (Homo sapiens, UniProt P08684). Briefly: P450 cocktail inhibition assay, CYP3A4. Conditions: at 10 μM. Type of data set: in vitro ADME. On the procedure:
as §2

Data set [1] can be described thus: Microsomal stability, human. Type of data set: in vitro ADME. Conditions: human microsomes.
Another data set concerns the target CYP2C9 (Homo sapiens, UniProt P11712). As to the kind of experiment: P450 cocktail inhibition assay, CYP2C9. Type of data set: in vitro ADME. Conditions: at 10 μM. On the procedure: as §2
Data set [2] is described as follows: Microsomal stability, mouse. Type of data set: in vitro ADME. To be noted: mouse microsomes.
The target of another data set is p38α (Homo sapiens, UniProt Q16539). Briefly: p38 enzyme inhibition assay. Conditions: mean of ≥2 experiments; read-out: Biochemical inhibition IC50 p38α.
The test system of data set [3] is JNK3-dependent phosphorylation of APP at T668. Briefly: JNK3 inhibition assay in rat primary neuron cultures (Western blot, anisomycin activated). To be noted: even at a concentration as low as 10 nM; FIGS. 5A-5C. Type of data set: cell-based. How it is done: Both hippocampal and cortical neurons were isolated from E18 rat embryos and cultured in NbActive 1 medium that contains B27 (Brainbits, LLC) plus penicillin/streptomycin (Life Technologies). At the 7th day in culture, cells were treated with different concentrations of inhibitors diluted in DMSO and 80 ng/ml Anisomycin for 30 min to activate the endogenous JNK3. At the end of incubation time, whole cell lysates were prepared in RIPA buffer containing 50 mM Tris (pH 8.0), 150 mM NaCl, 2 mM EDTA, 1% NP-40, 0.5% deoxycholate supplemented with 10 mM Na pyrophosphate, 1 mM sodium orthovanadate, 25 mM NaF, 10 μg/ml leupeptin, 10 μg/ml aprotinin, 1 mM β-glycerophosphate, and 2 mM PMSF. The lysates were subjected to Western blotting to detect whether inhibitors block JNK3-dependent phosphorylation of APP at T668 and c-jun at S73. Phospho-APP^T668, phosphor-c-jun^S73, APP, and c-jun antibodies were from Cell Signaling Technology.
On the technique in general: Immunoblotting shows a protein as a band on a membrane.

Sequence of CYP3A4 (P08684 whole entry): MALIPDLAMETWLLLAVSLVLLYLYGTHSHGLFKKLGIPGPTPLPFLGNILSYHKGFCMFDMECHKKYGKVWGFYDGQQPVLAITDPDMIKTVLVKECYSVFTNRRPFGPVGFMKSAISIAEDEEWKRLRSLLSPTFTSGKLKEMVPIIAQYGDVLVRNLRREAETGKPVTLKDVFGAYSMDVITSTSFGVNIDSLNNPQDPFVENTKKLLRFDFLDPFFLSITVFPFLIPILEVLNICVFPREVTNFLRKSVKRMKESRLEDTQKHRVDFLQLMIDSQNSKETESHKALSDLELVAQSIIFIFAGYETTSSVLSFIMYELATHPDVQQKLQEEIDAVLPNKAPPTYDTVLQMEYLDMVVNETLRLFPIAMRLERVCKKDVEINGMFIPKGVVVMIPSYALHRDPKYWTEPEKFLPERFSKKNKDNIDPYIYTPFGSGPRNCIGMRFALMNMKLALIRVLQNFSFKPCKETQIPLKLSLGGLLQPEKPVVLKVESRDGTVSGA
Sequence of JNK2 (P45984 whole entry, canonical isoform): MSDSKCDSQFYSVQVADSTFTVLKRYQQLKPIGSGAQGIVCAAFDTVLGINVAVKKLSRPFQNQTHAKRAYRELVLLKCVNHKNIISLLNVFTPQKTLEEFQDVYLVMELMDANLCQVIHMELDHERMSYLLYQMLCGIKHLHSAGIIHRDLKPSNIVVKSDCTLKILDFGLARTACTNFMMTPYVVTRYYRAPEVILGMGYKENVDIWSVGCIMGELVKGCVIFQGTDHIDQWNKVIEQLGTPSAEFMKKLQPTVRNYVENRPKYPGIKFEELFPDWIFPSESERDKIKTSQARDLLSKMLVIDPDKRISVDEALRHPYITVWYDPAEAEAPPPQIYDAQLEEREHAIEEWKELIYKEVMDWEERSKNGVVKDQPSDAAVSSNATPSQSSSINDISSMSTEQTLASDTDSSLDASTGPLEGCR
Sequence of CYP2D6 (P10635 whole entry, canonical isoform): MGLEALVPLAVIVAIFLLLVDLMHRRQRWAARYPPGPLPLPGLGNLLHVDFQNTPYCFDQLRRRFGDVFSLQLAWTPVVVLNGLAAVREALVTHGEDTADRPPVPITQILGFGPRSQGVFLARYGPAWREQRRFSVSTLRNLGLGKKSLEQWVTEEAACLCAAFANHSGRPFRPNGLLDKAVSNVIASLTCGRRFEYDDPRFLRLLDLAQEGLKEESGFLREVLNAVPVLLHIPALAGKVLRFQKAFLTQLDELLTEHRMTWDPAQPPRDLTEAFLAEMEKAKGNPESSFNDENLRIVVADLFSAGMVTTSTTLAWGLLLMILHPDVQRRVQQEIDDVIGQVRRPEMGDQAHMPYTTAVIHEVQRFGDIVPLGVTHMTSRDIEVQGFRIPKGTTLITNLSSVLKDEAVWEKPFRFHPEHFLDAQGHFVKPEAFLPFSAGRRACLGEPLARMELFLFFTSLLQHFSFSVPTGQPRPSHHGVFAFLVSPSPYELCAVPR
Sequence of JNK1 (P45983 whole entry, canonical isoform): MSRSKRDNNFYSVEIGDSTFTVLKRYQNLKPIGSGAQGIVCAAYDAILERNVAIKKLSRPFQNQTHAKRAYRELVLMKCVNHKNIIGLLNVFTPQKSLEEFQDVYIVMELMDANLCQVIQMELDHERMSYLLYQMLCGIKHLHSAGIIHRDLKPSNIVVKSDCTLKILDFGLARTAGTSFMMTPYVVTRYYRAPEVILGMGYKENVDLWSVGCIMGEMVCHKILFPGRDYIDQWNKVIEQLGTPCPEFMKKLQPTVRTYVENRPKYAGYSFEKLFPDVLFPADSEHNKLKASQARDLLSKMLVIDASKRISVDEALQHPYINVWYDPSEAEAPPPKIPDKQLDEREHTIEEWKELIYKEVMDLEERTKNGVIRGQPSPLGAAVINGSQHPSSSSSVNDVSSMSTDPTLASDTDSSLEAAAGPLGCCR
Sequence of JNK3α1 (P53779 1-422 isoform P53779-2): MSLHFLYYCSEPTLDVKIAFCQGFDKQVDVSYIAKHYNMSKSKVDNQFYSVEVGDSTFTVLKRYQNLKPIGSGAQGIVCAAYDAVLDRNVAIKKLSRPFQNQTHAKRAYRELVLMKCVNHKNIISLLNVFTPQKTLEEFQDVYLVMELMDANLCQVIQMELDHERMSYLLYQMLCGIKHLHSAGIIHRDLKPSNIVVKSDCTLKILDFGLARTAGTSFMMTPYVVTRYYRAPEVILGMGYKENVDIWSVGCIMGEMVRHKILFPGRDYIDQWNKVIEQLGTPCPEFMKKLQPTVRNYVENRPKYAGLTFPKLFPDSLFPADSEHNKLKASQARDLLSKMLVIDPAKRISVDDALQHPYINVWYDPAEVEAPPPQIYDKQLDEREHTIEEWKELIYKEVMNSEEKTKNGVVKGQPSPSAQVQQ
Sequence of p38α (Q16539 whole entry): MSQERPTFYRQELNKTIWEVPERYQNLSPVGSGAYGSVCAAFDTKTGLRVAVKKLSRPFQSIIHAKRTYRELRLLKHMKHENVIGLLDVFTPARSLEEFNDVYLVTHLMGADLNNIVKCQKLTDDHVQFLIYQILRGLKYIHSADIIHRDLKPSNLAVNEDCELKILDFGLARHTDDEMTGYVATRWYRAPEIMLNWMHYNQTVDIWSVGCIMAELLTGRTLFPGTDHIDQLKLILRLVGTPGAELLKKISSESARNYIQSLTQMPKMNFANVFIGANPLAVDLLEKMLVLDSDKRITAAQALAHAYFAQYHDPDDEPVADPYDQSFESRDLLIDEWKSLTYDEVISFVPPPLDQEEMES
Sequence of CYP2C9 (P11712 whole entry): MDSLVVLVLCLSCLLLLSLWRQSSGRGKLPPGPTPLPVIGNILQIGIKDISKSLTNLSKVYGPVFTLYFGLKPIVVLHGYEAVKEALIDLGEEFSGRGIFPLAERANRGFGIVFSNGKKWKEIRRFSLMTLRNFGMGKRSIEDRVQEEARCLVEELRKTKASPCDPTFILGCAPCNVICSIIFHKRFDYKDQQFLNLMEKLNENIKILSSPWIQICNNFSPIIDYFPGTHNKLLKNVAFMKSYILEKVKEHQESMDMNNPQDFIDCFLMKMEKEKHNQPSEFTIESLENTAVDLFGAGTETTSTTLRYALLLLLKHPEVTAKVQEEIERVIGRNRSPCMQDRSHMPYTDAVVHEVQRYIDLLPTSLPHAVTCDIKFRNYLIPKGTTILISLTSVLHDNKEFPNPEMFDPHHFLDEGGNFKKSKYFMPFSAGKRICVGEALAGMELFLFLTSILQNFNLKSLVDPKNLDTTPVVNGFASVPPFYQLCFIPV

A word on the IC50: it is the midpoint of a concentration-inhibition curve. In the case of `O=C(Nc1cnn(-c2csc(C(=O)NC3CC3)c2)c1)Nc1ccccc1Cl` [Compound 8, 4-(4-(3-(2-chlorophenyl)ureido)-1H-pyrazol-1-yl)-N-cyclopropylthiophene-2-carboxamide], on JNK1, the “R: ratio of IC50 values of JNK1 over JNK3” value (“R: ratio … of JNK1 over JNK3” below) was determined as 93 and the IC50 stood at 7.4 µM. On CYP2D6, the “CYP-450 % inh. 2D6” value is listed as −29%. The “CYP-450 % inh. 1A2” value on CYP1A2 was −2%. Also, the IC50 at JNK3α1 came out at 80 nM. Also, the MTT cell viability in the data set with SHSY5Y cells came out at 103%. Besides, at JNK2, the “isoform selectivity against JNK2 vs JNK3” value is recorded as “around 40 folds”, the “R: ratio of IC50 values of JNK2 over JNK3” value (from here on “R: ratio … of JNK2 over JNK3”) is on record as 40 and the IC50 stood at 3200 nM. At CYP3A4, the “CYP-450 % inh. 3A4” value is on record as −45%. Moreover, the “Mic. stability t1/2 Human” value in data set [1] is listed as 49 min. Besides, the “CYP-450 % inh. 2C9” value on CYP2C9 is −4%. Also, in data set [2], the “Mic. stability t1/2 Mouse” value was found to be 35 min. Also, the IC50 on p38α was more than 20 µM.

Turning to `O=C(Nc1cnn(-c2csc(C(=O)NCC3CCOCC3)c2)c1)Nc1ccccc1Cl` [Compound 24, 4-(4-(3-(2-chlorophenyl)ureido)-1H-pyrazol-1-yl)-N-((tetrahydro-2H-pyran-4-yl)methyl)thiophene-2-carboxamide], on JNK1, the “R: ratio … of JNK1 over JNK3” value is listed as 63. Moreover, the IC50 at JNK1 was 1.5 µM; on JNK3α1, 24 nM; at JNK2, 810 nM; at p38α, more than 20 µM. Moreover, at CYP2D6, the “CYP-450 % inh. 2D6” value is listed as 32%. In addition, the “CYP-450 % inh. 1A2” value at CYP1A2 was 36%. In addition, the MTT cell viability with SHSY5Y cells is reported as 95%. The “R: ratio … of JNK2 over JNK3” value on JNK2 is on record as 34. Further, the “CYP-450 % inh. 3A4” value at CYP3A4 is 21%. In addition, in data set [1], the “Mic. stability t1/2 Human” value is listed as 8 min. In addition, the “CYP-450 % inh. 2C9” value at CYP2C9 came out at 64%. The “Mic. stability t1/2 Mouse” value in data set [2] is reported as 15 min.

In the case of `CN1CCC(NC(=O)c2cc(-n3cc(NC(=O)Nc4ccccc4Cl)cn3)cs2)CC1` [Compound 14, 4-(4-(3-(2-chlorophenyl)ureido)-1H-pyrazol-1-yl)-N-(1-methylpiperidin-4-yl)thiophene-2-carboxamide], the IC50 at JNK1 is 4.2 µM; at JNK3α1, 84 nM; at JNK2, 2770 nM; at p38α, more than 20 µM. On CYP2D6, the “CYP-450 % inh. 2D6” value is on record as −5%. In addition, the “CYP-450 % inh. 1A2” value on CYP1A2 is −6%. Moreover, in the data set on SHSY5Y cells, the MTT cell viability came to 89%. Moreover, on JNK2, the “R: ratio … of JNK2 over JNK3” value is listed as 33. Besides, the “CYP-450 % inh. 3A4” value at CYP3A4 is given as −34%. The “Mic. stability t1/2 Human” value in data set [1] is given as 92 min. Besides, on CYP2C9, the “CYP-450 % inh. 2C9” value is recorded as −19%. In addition, the “Mic. stability t1/2 Mouse” value in data set [2] came to 15 min.

In the case of `Cc1sc(C(=O)N[C@@H]2CCOC2)cc1-n1cc(NC(=O)Nc2c(F)cccc2Cl)cn1` [Compound 28, (R)-4-(4-(3-(2-chloro-6-fluorophenyl)ureido)-1H-pyrazol-1-yl)-5-methyl-N-(tetrahydrofuran-3-yl)thiophene-2-carboxamide], the “CYP-450 % inh. 2D6” value at CYP2D6 came to 17%. In addition, the “CYP-450 % inh. 1A2” value at CYP1A2 amounted to 34%. The “reduction in JNK3 inhibitions” value at JNK3α1 (compared to 16) was 7 fold. Moreover, the “inhibition of phosphorylation of residue T668 of APP” value in [3] is reported as “significantly inhibited”. For the same compound, the MTT cell viability in the data set on SHSY5Y cells was 114%. The “CYP-450 % inh. 3A4” value on CYP3A4 came out at 26%. Moreover, the “Mic. stability t1/2 Human” value in [1] is 40 min. In addition, on CYP2C9, the “CYP-450 % inh. 2C9” value is listed as 35%. In addition, the “Mic. stability t1/2 Mouse” value in [2] is reported as 38 min.

For the compound `O=C(Nc1cnn(-c2csc(C(=O)NC3COC3)c2)c1)Nc1ccc(F)cc1Cl` [Compound 26, 4-(4-(3-(2-chloro-4-fluorophenyl)ureido)-1H-pyrazol-1-yl)-N-(oxetan-3-yl)thiophene-2-carboxamide], the “CYP-450 % inh. 2D6” value on CYP2D6 came to 30%. Moreover, the “CYP-450 % inh. 1A2” value on CYP1A2 amounted to 38%. For the same compound, the “inhibition of phosphorylation of residue T668 of APP” value in data set [3] was “significantly inhibited”. Also, in the data set with SHSY5Y cells, the MTT cell viability is 104%. The “CYP-450 % inh. 3A4” value at CYP3A4 is −5%. In addition, the “Mic. stability t1/2 Human” value in data set [1] was more than 120 min. Also, the “CYP-450 % inh. 2C9” value on CYP2C9 is reported as 47%. In [2], the “Mic. stability t1/2 Mouse” value is given as 68 min.

Regarding `O=C(Nc1cnn(-c2csc(C(=O)NC3CCOCC3)c2)c1)Nc1ccccc1Cl` [Compound 15, 4-(4-(3-(2-chlorophenyl)ureido)-1H-pyrazol-1-yl)-N-(tetrahydro-2H-pyran-4-yl)thiophene-2-carboxamide], the “R: ratio … of JNK1 over JNK3” value on JNK1 amounted to 38. Further, the IC50 at JNK1 was 1.9 µM; on JNK3α1 it was 50 nM; on JNK2, 1050 nM; on p38α, more than 20 µM. For the same compound, the “CYP-450 % inh. 2D6” value on CYP2D6 amounted to 0%. Moreover, on CYP1A2, the “CYP-450 % inh. 1A2” value worked out at 32%. In the data set with SHSY5Y cells, the MTT cell viability is recorded as 97%. In addition, the “R: ratio … of JNK2 over JNK3” value on JNK2 turned out to be 21. Moreover, the “CYP-450 % inh. 3A4” value on CYP3A4 is −35%. Moreover, the “Mic. stability t1/2 Human” value in data set [1] turned out to be 32 min. The “CYP-450 % inh. 2C9” value at CYP2C9 is 7%. In addition, the “Mic. stability t1/2 Mouse” value in data set [2] came to 16 min.

For the origin of these results see US20240246942A1, “KINASE INHIBITORS FOR THE TREATMENT OF NEURODEGENERATIVE DISEASES” (priority 2020, published 2024).
